Patent publication US20120059051A1, “ORAL COMPOSITION CONTAINING EGCG AND LYCOPENE” (DSM IP ASSET B.V., priority 2006, published 2012)

Tests used:
MMP-1 = experiment: Inhibition of UV-A induced expression of matrix metalloproteinase-1 (real time PCR) in primary human dermal fibroblasts; assay type: cell-based; details: skin fibroblasts; for % inhibition: inhibition of UV-A induced MMP-1 expression, 30 J/cm^2 UVA1; for MMP-1 expression relative to UV-A only treated cells: 30 J/cm^2 UVA1, MMP-1 RNA 24 hrs after irradiation, UV-A only = 100%
Description: Primary human dermal fibroblasts were cultured in EMEM without glutamine (Earle's Minimum Essential Medium), supplemented with antibiotics/antimycotics, 2 mM L-glutamine and 7.5% fetal calf serum at 37° C.[…] and grown to 100% confluency. Forty-eight hours prior to irradiation the cells were preincubated with the desired substances in EMEM (with AB/AM, L-Glutamine and 2% FCS. After 24 hours the medium was replaced by fresh medium with substances (fresh prepared). For irradiation, the medium was removed and after 6 wash steps with phosphate-buffered saline (PBS) replaced by phosphate-buffered saline (PBS). The plate was then exposed to 30 J/cm^2 UVA1. The UVA1 output was approximately 150 mW/cm^2. After irradiation the phosphate-buffered saline in the cell microplate was exchanged against culture medium (+7.5% FCS) with the substances (fresh prepared) and the cells were incubated in a CO2-incubator for further 24 hrs (MMP-1 determination). The culture medium was removed, the cells were rinsed with phosphate-buffered saline and the whole plate was frozen in liquid nitrogen. Total RNA was isolated using RNeasy Total RNA Kits (Qiagen, Hilden; Germany). The RNA concentration was determined via photometric measurement at 260/280. Aliquots of total RNA (75 ng) were applied for cDNA-Synthesis using Superscript™ First-Strand synthesis system for RT-PCR. Two samples for each compound were analyzed. The PCR reactions were carried out on an Opticon 1 (MJ Research, Waltham, Mass., USA) using SYBR Green® PCR Master Mix (Applied Biosystems, Darmstadt, Germany). For comparison of relative expression in real time PCR control cells and treated cells the 2 ^(−delta delta C(T)) method was used.

UVA-induced MMPI = details: literature statement; increase only prevented in combination with vitamin E; cited from earlier work
UVA-induced collagenases = details: literature statement; cited from earlier work
skin collagenases = details: literature statement; cited from earlier work

For `CC(C)=CCC/C(C)=C/C=C/C(C)=C/C=C/C(C)=C/C=C/C=C(C)/C=C/C=C(C)/C=C/C=C(\C)CCC=C(C)C` [Lycopene, lycopene], the “% inhibition” value (MMP-1) is listed as 65%, the “MMP-1 expression relative to UV-A only treated cells” value (MMP-1) is listed as 35% and the “effect on UVA-induced MMPI” value (UVA-induced MMPI) is listed as “further increase”.

In the case of `CC1=C(/C=C/C(C)=C/C=C/C(C)=C/C=C/C=C(C)/C=C/C=C(C)/C=C/C2=C(C)CCCC2(C)C)C(C)(C)CCC1` [betacarotene], the “effect on UVA-induced collagenases” value (UVA-induced collagenases) is given as “repress”.

In the case of (−)-epigallocatechin gallate [EGCG], the “% inhibition” value (MMP-1) is given as 13%, the “MMP-1 expression relative to UV-A only treated cells” value (MMP-1) is given as 87% and the “effect on various skin collagenases” value (skin collagenases) is given as “suppress”.
